Reference: US6500842B1, “8-hydroxy-7-substituted quinolines as anti-viral agents” (Pharmacia & Upjohn Company, priority 1996, dated 2002)
“And” between values parts separate entries of the source, which are not always exact repeats. Equal values may be shown once. Read-outs that look alike come from different tables or passages of the source. Each block holds one compound with its values, some of them ahead of it.

Tests used:
[1] = system: HCMV; assay: CMV antiviral assay, cell culture based ELISA in human foreskin fibroblast cells; parameters: species or system human cytomegalovirus (HCMV)
Protocol: Compounds are tested for direct antiviral activity against HCMV using a cell culture based assay. An ELISA (enzyme linked immunosorbant assay) format is used as described in W. A. Tatarowicz, N. S. Lurain and K. D. Thompson, J. Virol. Meth., 35:207-215 (1991). Human foreskin fibroblast cells are infected with HCMV at a multiplicity of 0.025 plaque forming units per microtiter plate well for a period of 90 minutes. The virus inocula is removed and a suspension of test compound prepared in tissue culture media is added for a period of 4 days. The growth media is aspirated and replaced with 95% ethanol to allow fixation of virus infected cultures. The ethanol is removed and the wells are washed twice with saline. A solution of 2% dry fat milk, 1% bovine sera albumin prepared in saline is added to wells to allow for non-specific binding of protein material to plastic surfaces for 1 hr. Murine monoclonal antibody prepared in saline directed against the late (65 KD) matrix protein of HCMV is added to test wells for 1 hr. The wells are washed twice and antibody, conjugated with the enzyme horse radish peroxidase, with specificity against murine IgG is added to test wells for 1 hr. Test wells are washed three times with saline. A solution of o-phenylene diamine, a substrate for horse radish peroxidase is added for 15 minutes at which time enzymatic conversion occurs indicating reactivity of the enzyme with its substrate. This conversion is evident as a color reaction which was spectrophoretically monitored at 490 nm. The intensity of the color indirectly reflects the presence of antibody directed against the viral 65 KD matrix antigen. The presence of the viral matrix antigen refects the amount of HCMV replication. Thus, test wells, in which little viral replication has occurred, would have little or no antibody binding and are present with low levels of color. Non-infected wells serve as the assay background control.

[2] = target: T1, CMV polymerase (Human cytomegalovirus, UniProt P08546); assay: modified version of the HCMV polymerase assay (100% DMSO dilution, DTT, different enzyme lot); assay type: biochemical; details: for IC50: read-out: IC50
T1 construct: made in house; host or cells: recombinant baculovirus-infected SF-9 cells
T1 sequence (P08546 whole entry): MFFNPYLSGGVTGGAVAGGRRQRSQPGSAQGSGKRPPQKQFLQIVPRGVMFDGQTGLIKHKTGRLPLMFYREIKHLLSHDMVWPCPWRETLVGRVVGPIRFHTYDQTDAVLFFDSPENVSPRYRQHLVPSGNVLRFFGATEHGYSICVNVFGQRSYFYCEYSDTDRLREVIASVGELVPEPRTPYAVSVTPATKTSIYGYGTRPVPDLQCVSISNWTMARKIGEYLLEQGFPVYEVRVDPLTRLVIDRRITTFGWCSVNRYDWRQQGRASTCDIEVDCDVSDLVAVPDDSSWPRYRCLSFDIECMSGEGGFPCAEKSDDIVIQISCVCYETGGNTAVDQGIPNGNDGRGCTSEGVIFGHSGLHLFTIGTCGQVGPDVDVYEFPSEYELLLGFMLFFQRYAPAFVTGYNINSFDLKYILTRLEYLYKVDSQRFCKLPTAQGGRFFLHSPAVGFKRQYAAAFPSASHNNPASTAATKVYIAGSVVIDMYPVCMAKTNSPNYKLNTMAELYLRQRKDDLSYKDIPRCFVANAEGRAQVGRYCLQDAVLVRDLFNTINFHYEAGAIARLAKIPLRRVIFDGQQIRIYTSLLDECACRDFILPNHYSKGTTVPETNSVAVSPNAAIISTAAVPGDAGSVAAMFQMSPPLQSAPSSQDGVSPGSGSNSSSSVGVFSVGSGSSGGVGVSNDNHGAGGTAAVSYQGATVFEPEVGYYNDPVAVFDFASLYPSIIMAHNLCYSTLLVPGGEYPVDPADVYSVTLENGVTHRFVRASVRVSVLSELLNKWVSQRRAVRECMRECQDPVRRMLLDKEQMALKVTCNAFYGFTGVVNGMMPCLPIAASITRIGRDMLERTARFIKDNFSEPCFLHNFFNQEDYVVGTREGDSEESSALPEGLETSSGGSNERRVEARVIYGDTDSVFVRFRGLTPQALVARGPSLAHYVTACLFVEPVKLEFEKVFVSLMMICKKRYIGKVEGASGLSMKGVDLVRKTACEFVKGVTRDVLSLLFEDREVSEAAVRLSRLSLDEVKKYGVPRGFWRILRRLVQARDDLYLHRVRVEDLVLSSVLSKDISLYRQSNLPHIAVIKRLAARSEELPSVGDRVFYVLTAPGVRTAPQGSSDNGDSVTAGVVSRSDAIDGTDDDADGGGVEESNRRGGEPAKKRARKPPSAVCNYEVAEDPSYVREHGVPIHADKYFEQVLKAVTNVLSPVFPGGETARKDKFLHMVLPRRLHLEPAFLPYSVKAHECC
Protocol: The HCMV polymerase assay is performed using a scintillation proximity assay (SPA) as described in several references, such as N. D. Cook, et al., Pharmaceutical Manufacturing International, pages 49-53 (1992); K. Takeuchi, Laboratory Practice, September issue (1992); U.S. Pat. No. 4,568,649 (1986); which are incorporated by reference herein. Reactions are performed in 96-well plates. The assay is conducted in 100 μl volume with 5.4 mM HEPES (pH 7.5), 11.7 mM KCl, 4.5 mM MgCl2, 0.36 mg/ml BSA, and 90 nM ^3H-dTTP. Assays are run with and without CHAPS, (3-[(3-Cholamidopropyl)-dimethylammonio]-1-propane-sulfonate) at a final concentration of 2 mM. HCMV is diluted in enzyme dilution buffer containing 50% glycerol, 250 mM NaCl, 10 mM HEPES (pH 7.5), 100 pg/ml BSA, and 0.01% sodium azide. The HCMV polymerase, which is expressed in recombinant baculovirus-infected SF-9 cells and purified according to literature procedures, is added at 10% (or 10 μl) of the final reaction volume, i.e., 100 μl. Compounds are diluted in 50% DMSO and 10 μl are added to each well. Control wells contain an equivalent concentration of DMSO. Unless noted otherwise, reactions are initiated via the addition of 6 nM biotinylated poly(dA)-oligo(dT) template/primer to reaction mixtures containing the enzyme, substrate, and compounds of interest. Plates are incubated in a 25° C. of 37° C. H2O bath and terminated via the addition of 40 μl/reaction of 0.5 M EDTA (pH 8) per well. Reactions are terminated within the time-frame during which substrate incorporation is linear and varied depending upon the enzyme and conditions used, i.e., 30 min. for HCMV polymerase. Ten μl of streptavidin-SPA beads (20 mg/ml in PBS/10% glycerol) are added following termination of the reaction. Plates are incubated 10 min. at 37° C., then equilibrated to room temperature, and counted on a Packard Topcount. Linear regressions are performed and IC50's are calculated using computer software. Results of the testing of compounds of the present invention in this assay are shown in Tables 1, 2, 5, 9, 10, 11, 13 (except for the last compound which was tested under modified conditions) and 14 below.
A modified version of the above HCMV polymerase assay is performed as described above, but with the following changes: Compounds are diluted in 100% DMSO until final dilution into assay buffer. In the previous assay, compounds are diluted in 50% DMSO. 4.5 mM dithiotherotol (DTT) is added to the polymerase buffer.

[3] = Human betaherpesvirus 5, Fibroblast, read-out: CMV Antiviral Assay IC50 (AV), Table 12

Structure (SMILES): Cc1ccc2c(Cl)cc(S(=O)(=O)NCCc3ccccn3)c(O)c2n1 [drawing 329]
IC50 [1, 3]: 14.6 µM

Structure (SMILES): N#CCNC(=O)c1ccc2cccnc2c1O [drawing 130]
IC50 ([1]; Human betaherpesvirus 5, Fibroblast, read-out: CMV Antiviral Assay IC50 (AV), Table 7): 3 µM

melting point: 187 to 193 °C
inhibition at 3.13 µM ([2]; Concentration 3.13 μM, Table 6): 29%
inhibition at 6.25 µM ([2]; Concentration 6.25 μM, Table 6): 34%
inhibition at 12.5 µM ([2]; Concentration 12.5 μM, Table 6): 49%
inhibition at 25 µM ([2]; Concentration 25 μM, Table 6): 71%
inhibition at 50 µM ([2]; Concentration 50 μM, Table 6): 74%
inhibition at 100 µM ([2]; Concentration 100 μM, Table 6): 92%
IC50 ([2]; Table 6): 11.4 µM
Structure (SMILES): O=S(=O)(NCCSc1ccccc1)c1cc(Cl)c2ccc(/C=C/c3ccccc3)nc2c1O [Example 63, (E)-5-Chloro-8-hydroxy-2-(2-phenylethenyl)-N-[2-(phenylthio)ethyl]-7-quinolinesulfonamide]

Structure (SMILES): Cc1ccc2c(Cl)cc(S(=O)(=O)NCc3ccccn3)c(O)c2n1 [drawing 327]
IC50 [1, 3]: 14.4 µM
IC50 ([1]; read-out: CMV Antiviral Assay IC50 (AV), Table 12): 14.1 µM and 9.4 µM

melting point: 115 to 119 °C
inhibition at 6.25 µM ([2]; Concentration 6.25 uM, Table 3): 36%
inhibition at 12.5 µM ([2]; Concentration 12.5 uM, Table 3): 58%
inhibition at 25 µM ([2]; Concentration 25 uM, Table 3): 62%
inhibition at 50 µM ([2]; Concentration 50 uM, Table 3): 96%
inhibition at 100 µM ([2]; Concentration 100 uM, Table 3): 97%
IC50 ([2]; Table 3): 10.5 µM
Structure (SMILES): Cc1ccc2c(Cl)cc(S(=O)(=O)NC(c3ccccc3)c3ccccc3)c(O)c2n1 [Example 38, 5-Chloro-N-(diphenylmethyl)-8-hydroxy-2-methyl-7-quinoline-sulfonamide]

Structure (SMILES): Cc1ccc2c(Cl)cc(S(=O)(=O)NCCCCc3ccccc3)c(O)c2n1 [drawing 328]
IC50 [1, 3]: 3.5 µM

Structure (SMILES): N#Cc1ccc(NC(=O)c2ccc3cccnc3c2O)cc1 [drawing 331]
IC50 ([1]; Human betaherpesvirus 5, Fibroblast, Table 12, read-out: CMV Antiviral Assay IC50 (AV)): 3.9 µM

Structure (SMILES): Cc1ccc2c(Cl)cc(S(=O)(=O)NCCc3ccccn3)c(O)c2n1 [Example 62, 5-Chloro-8-hydroxy-2-methyl-N-[2-(2-pyridinyl)ethyl]-7-quinolinesulfonamide]
melting point: 153 to 155 °C
inhibition at 3.13 µM ([2]; Concentration 3.13 μM, Table 6): 1%
inhibition at 6.25 µM ([2]; Concentration 6.25 μM, Table 6): 3%
inhibition at 12.5 µM ([2]; Concentration 12.5 μM, Table 6): 6%
inhibition at 25 µM ([2]; Concentration 25 μM, Table 6): 10%
inhibition at 50 µM ([2]; Concentration 50 μM, Table 6): 14%
inhibition at 100 µM ([2]; Concentration 100 μM, Table 6): 33%
inhibition at 200 µM ([2]; Concentration 200 μM, Table 6): 42%
IC50 ([2]; Table 6): > 200 µM

Structure (SMILES): Cc1ccc2c(Cl)cc(S(=O)(=O)NCCCN3CCOCC3)c(O)c2n1 [Example 36, 5-Chloro-8-hydroxy-2-methyl-N-[3-(4-morpholinyl)propyl]-7-quinoline-sulfonamide]
melting point: 245 to 257 °C
inhibition at 3.13 µM ([2]; Concentration 3.13 uM, Table 3): -1%
inhibition at 6.25 µM ([2]; Concentration 6.25 uM, Table 3): -3%
inhibition at 12.5 µM ([2]; Concentration 12.5 uM, Table 3): 6%
inhibition at 25 µM ([2]; Concentration 25 uM, Table 3): 0%
inhibition at 50 µM ([2]; Concentration 50 uM, Table 3): 15%
inhibition at 100 µM ([2]; Concentration 100 uM, Table 3): 3%
inhibition at 200 µM ([2]; Concentration 200 uM, Table 3): 19%
IC50 ([2]; Table 3): > 200 µM
